Measured values reported in the kinase profiling compilation of Christmann-Franck et al. (2016).

Target: DAPK3 (human) (UniProt O43293)
Experiment: radiometric filter-binding kinase assay, Kinase HotSpot
Settings: compound 0.5 µM; ATP 10 µM

First: COc1cc2c(N3CCN(C(=O)Nc4ccc(OC(C)C)cc4)CC3)ncnc2cc1OCCCN1CCCCC1
Second: COc1cc2c(Nc3ccc(Br)cc3F)ncnc2cc1OCC1CCN(C)CC1
The residual activity of the first is higher: 101% for the first, 90.3% for the second.

For O=C(c1ccccc1)c1ccc(N2CCOCC2)cc1O, the residual activity was 100%.

Target: DYRK3 (human) (UniProt O43781)
Experiment: as above
Settings: compound 0.5 µM; ATP 10 µM

FC(F)(F)c1ccc(/C=C/c2nc(COc3ccc(CCCCn4ccnn4)cc3)co2)cc1 and COc1cc2c(N3CCN(C(=O)Nc4ccc(OC(C)C)cc4)CC3)ncnc2cc1OCCCN1CCCCC1 are the same in residual activity: 109% for the first, 109% for the second.

Going from COc1cc2c(Nc3ccc(Br)cc3F)ncnc2cc1OCC1CCN(C)CC1 to O=C(c1ccccc1)c1ccc(N2CCOCC2)cc1O, the residual activity rises from 96% to 98.9%.

Target: MAPK12 (human) (UniProt P53778)
Experiment: as above
Settings: compound 0.5 µM; ATP 10 µM

First: FC(F)(F)c1ccc(/C=C/c2nc(COc3ccc(CCCCn4ccnn4)cc3)co2)cc1
Second: COc1cc2c(N3CCN(C(=O)Nc4ccc(OC(C)C)cc4)CC3)ncnc2cc1OCCCN1CCCCC1
The residual activity of the first is higher: 98.3% for the first, 96.4% for the second.

Compared with COc1cc2c(Nc3ccc(Br)cc3F)ncnc2cc1OCC1CCN(C)CC1, O=C(c1ccccc1)c1ccc(N2CCOCC2)cc1O is higher in residual activity: 92.6% for the first, 100% for the second.

Target: ADRBK2 (human) (UniProt P35626)
Experiment: as above
Settings: compound 0.5 µM; ATP 10 µM

First: FC(F)(F)c1ccc(/C=C/c2nc(COc3ccc(CCCCn4ccnn4)cc3)co2)cc1
Second: COc1cc2c(N3CCN(C(=O)Nc4ccc(OC(C)C)cc4)CC3)ncnc2cc1OCCCN1CCCCC1
The residual activity of the first is higher: 104% for the first, 97.6% for the second.

Compared with COc1cc2c(Nc3ccc(Br)cc3F)ncnc2cc1OCC1CCN(C)CC1, O=C(c1ccccc1)c1ccc(N2CCOCC2)cc1O is higher in residual activity: 97.4% for the first, 103% for the second.

Target: SRC (human) (UniProt P12931)
Sequence (P12931 whole entry, looked up): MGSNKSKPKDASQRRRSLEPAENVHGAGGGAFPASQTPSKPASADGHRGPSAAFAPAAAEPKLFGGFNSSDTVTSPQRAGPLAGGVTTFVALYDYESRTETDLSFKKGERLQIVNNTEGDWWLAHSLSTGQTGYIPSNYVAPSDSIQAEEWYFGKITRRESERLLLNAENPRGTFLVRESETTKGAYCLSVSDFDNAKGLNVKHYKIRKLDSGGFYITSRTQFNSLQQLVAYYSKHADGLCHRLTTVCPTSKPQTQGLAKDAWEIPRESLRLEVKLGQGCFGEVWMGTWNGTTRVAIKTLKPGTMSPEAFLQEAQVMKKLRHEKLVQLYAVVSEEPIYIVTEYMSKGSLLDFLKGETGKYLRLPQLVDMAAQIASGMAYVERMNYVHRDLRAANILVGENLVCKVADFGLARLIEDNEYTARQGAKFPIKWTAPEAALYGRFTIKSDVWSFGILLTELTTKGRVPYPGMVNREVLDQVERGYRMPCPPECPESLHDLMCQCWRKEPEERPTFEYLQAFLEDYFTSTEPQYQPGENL
Experiment: as above
Settings: compound 0.5 µM; ATP 10 µM

Compared with FC(F)(F)c1ccc(/C=C/c2nc(COc3ccc(CCCCn4ccnn4)cc3)co2)cc1, COc1cc2c(N3CCN(C(=O)Nc4ccc(OC(C)C)cc4)CC3)ncnc2cc1OCCCN1CCCCC1 is higher in residual activity: 92.5% for the first, 102% for the second.

First: COc1cc2c(Nc3ccc(Br)cc3F)ncnc2cc1OCC1CCN(C)CC1
Second: O=C(c1ccccc1)c1ccc(N2CCOCC2)cc1O
The residual activity of the first is lower: 11% for the first, 97.8% for the second.

Target: MAP3K3 (human) (UniProt Q99759)
Experiment: as above
Settings: compound 0.5 µM; ATP 10 µM

First: FC(F)(F)c1ccc(/C=C/c2nc(COc3ccc(CCCCn4ccnn4)cc3)co2)cc1
Second: COc1cc2c(N3CCN(C(=O)Nc4ccc(OC(C)C)cc4)CC3)ncnc2cc1OCCCN1CCCCC1
The residual activity of the first is higher: 112% for the first, 106% for the second.

Compared with COc1cc2c(Nc3ccc(Br)cc3F)ncnc2cc1OCC1CCN(C)CC1, O=C(c1ccccc1)c1ccc(N2CCOCC2)cc1O is lower in residual activity: 102% for the first, 97.8% for the second.

Target: NTRK2 (human) (UniProt Q16620)
Experiment: as above
Settings: compound 0.5 µM; ATP 10 µM

Going from FC(F)(F)c1ccc(/C=C/c2nc(COc3ccc(CCCCn4ccnn4)cc3)co2)cc1 to COc1cc2c(N3CCN(C(=O)Nc4ccc(OC(C)C)cc4)CC3)ncnc2cc1OCCCN1CCCCC1, the residual activity falls from 102% to 81.7%.

Compared with COc1cc2c(Nc3ccc(Br)cc3F)ncnc2cc1OCC1CCN(C)CC1, O=C(c1ccccc1)c1ccc(N2CCOCC2)cc1O is lower in residual activity: 93.2% for the first, 92.7% for the second.

Target: NEK6 (human) (UniProt Q9HC98)
Sequence (Q9HC98 whole entry, looked up): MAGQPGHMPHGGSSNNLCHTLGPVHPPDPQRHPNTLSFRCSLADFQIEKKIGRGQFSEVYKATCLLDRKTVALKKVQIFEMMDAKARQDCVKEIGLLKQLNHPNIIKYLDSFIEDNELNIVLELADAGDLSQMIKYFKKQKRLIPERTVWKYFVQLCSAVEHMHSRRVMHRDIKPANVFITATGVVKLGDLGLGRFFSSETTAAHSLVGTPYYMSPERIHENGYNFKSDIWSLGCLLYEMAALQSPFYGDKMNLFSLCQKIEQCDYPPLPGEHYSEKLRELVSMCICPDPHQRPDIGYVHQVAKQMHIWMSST
Experiment: as above
Settings: compound 0.5 µM; ATP 10 µM

Going from FC(F)(F)c1ccc(/C=C/c2nc(COc3ccc(CCCCn4ccnn4)cc3)co2)cc1 to COc1cc2c(N3CCN(C(=O)Nc4ccc(OC(C)C)cc4)CC3)ncnc2cc1OCCCN1CCCCC1, the residual activity falls from 92.6% to 87.4%.

Compared with COc1cc2c(Nc3ccc(Br)cc3F)ncnc2cc1OCC1CCN(C)CC1, O=C(c1ccccc1)c1ccc(N2CCOCC2)cc1O is lower in residual activity: 96.9% for the first, 95% for the second.

Target: CDC42BPA (human) (UniProt Q5VT25)
Sequence (Q5VT25 whole entry, looked up): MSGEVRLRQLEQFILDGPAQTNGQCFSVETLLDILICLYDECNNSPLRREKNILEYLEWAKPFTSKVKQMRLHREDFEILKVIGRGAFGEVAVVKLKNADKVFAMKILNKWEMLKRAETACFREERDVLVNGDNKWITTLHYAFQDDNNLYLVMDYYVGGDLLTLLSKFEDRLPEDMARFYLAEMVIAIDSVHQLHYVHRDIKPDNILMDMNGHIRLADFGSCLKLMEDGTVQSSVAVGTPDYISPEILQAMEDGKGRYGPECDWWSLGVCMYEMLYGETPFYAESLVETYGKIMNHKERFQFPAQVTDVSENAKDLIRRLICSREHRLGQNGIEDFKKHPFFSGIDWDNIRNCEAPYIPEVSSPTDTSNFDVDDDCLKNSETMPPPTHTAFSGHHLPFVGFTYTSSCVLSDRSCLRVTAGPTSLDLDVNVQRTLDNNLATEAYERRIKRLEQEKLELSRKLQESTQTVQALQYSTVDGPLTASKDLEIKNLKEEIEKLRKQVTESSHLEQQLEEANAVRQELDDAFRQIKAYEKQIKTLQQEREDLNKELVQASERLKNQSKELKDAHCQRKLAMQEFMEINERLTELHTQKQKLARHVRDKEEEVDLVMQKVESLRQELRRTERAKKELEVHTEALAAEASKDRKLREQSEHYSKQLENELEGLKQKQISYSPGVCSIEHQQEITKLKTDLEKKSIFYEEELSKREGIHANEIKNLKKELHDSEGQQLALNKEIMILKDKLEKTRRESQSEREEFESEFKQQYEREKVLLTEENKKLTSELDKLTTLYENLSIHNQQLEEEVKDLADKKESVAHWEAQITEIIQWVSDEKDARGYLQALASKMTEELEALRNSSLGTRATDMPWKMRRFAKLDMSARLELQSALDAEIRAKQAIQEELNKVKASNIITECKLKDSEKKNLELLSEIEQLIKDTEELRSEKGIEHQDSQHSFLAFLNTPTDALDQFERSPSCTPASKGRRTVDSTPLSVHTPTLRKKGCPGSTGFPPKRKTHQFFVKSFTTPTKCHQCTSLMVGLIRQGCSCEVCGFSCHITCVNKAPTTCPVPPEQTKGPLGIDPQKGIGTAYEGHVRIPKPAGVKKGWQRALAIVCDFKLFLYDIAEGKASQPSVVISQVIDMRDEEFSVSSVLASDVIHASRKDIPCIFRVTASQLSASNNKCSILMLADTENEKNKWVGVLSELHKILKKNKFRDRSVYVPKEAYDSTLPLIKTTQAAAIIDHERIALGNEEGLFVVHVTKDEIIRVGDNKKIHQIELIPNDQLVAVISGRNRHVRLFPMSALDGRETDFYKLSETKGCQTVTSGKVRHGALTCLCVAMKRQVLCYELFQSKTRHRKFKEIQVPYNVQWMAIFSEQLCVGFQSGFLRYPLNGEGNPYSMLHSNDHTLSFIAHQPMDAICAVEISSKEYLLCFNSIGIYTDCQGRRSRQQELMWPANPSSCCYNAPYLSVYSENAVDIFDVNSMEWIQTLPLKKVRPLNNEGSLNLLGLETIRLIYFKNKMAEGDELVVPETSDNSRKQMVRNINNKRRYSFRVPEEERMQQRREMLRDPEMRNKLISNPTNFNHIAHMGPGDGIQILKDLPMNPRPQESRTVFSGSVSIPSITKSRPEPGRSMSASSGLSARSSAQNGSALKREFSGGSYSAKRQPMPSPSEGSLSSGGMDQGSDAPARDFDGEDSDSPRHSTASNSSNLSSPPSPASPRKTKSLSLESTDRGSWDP
Experiment: as above
Settings: compound 0.5 µM; ATP 10 µM

Going from FC(F)(F)c1ccc(/C=C/c2nc(COc3ccc(CCCCn4ccnn4)cc3)co2)cc1 to COc1cc2c(N3CCN(C(=O)Nc4ccc(OC(C)C)cc4)CC3)ncnc2cc1OCCCN1CCCCC1, the residual activity rises from 103% to 106%.

Going from COc1cc2c(Nc3ccc(Br)cc3F)ncnc2cc1OCC1CCN(C)CC1 to O=C(c1ccccc1)c1ccc(N2CCOCC2)cc1O, the residual activity rises from 83.7% to 95.5%.

Target: CSNK1E (human) (UniProt P49674)
Sequence (P49674 whole entry, looked up): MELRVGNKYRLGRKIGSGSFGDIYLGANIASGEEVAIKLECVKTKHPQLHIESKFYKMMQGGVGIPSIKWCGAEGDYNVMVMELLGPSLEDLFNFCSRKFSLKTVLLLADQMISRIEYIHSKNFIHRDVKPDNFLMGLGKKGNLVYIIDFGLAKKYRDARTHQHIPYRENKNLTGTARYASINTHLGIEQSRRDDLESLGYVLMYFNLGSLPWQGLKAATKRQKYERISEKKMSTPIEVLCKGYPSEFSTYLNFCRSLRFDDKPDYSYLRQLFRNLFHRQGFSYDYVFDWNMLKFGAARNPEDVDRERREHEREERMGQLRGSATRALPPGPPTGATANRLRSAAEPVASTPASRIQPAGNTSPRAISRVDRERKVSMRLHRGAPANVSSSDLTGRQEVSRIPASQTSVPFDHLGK
Experiment: as above
Settings: compound 0.5 µM; ATP 10 µM

Compared with FC(F)(F)c1ccc(/C=C/c2nc(COc3ccc(CCCCn4ccnn4)cc3)co2)cc1, COc1cc2c(N3CCN(C(=O)Nc4ccc(OC(C)C)cc4)CC3)ncnc2cc1OCCCN1CCCCC1 is higher in residual activity: 95.5% for the first, 99.1% for the second.

O=C(c1ccccc1)c1ccc(N2CCOCC2)cc1O was tested, and the residual activity was 97.7%.

Target: TEC (human) (UniProt P42680)
Experiment: as above
Settings: compound 0.5 µM; ATP 10 µM

Compared with FC(F)(F)c1ccc(/C=C/c2nc(COc3ccc(CCCCn4ccnn4)cc3)co2)cc1, COc1cc2c(N3CCN(C(=O)Nc4ccc(OC(C)C)cc4)CC3)ncnc2cc1OCCCN1CCCCC1 is higher in residual activity: 86.4% for the first, 89% for the second.

Going from COc1cc2c(Nc3ccc(Br)cc3F)ncnc2cc1OCC1CCN(C)CC1 to O=C(c1ccccc1)c1ccc(N2CCOCC2)cc1O, the residual activity rises from 91.6% to 119%.

Target: STK24 (human) (UniProt Q9Y6E0)
Experiment: as above
Settings: compound 0.5 µM; ATP 10 µM

Going from FC(F)(F)c1ccc(/C=C/c2nc(COc3ccc(CCCCn4ccnn4)cc3)co2)cc1 to COc1cc2c(N3CCN(C(=O)Nc4ccc(OC(C)C)cc4)CC3)ncnc2cc1OCCCN1CCCCC1, the residual activity rises from 101% to 102%.

First: COc1cc2c(Nc3ccc(Br)cc3F)ncnc2cc1OCC1CCN(C)CC1
Second: O=C(c1ccccc1)c1ccc(N2CCOCC2)cc1O
The residual activity of the first is higher: 104% for the first, 89% for the second.

Target: PRKD3 (human) (UniProt O94806)
Experiment: as above
Settings: compound 0.5 µM; ATP 10 µM

Going from FC(F)(F)c1ccc(/C=C/c2nc(COc3ccc(CCCCn4ccnn4)cc3)co2)cc1 to COc1cc2c(N3CCN(C(=O)Nc4ccc(OC(C)C)cc4)CC3)ncnc2cc1OCCCN1CCCCC1, the residual activity rises from 93.3% to 97.3%.

First: COc1cc2c(Nc3ccc(Br)cc3F)ncnc2cc1OCC1CCN(C)CC1
Second: O=C(c1ccccc1)c1ccc(N2CCOCC2)cc1O
The residual activity of the first is lower: 91.7% for the first, 96.1% for the second.

Target: MAPK3 (human) (UniProt P27361)
Sequence (P27361 whole entry, looked up): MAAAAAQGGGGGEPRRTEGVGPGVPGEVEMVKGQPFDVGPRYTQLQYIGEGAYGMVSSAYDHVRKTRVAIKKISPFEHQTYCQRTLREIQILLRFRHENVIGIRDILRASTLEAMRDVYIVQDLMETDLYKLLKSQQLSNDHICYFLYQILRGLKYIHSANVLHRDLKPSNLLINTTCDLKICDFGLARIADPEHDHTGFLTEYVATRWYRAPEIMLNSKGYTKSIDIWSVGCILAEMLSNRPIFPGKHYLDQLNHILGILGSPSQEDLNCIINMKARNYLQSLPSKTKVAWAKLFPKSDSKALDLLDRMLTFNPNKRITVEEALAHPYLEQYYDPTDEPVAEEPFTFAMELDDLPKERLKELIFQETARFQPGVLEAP
Experiment: as above
Settings: compound 0.5 µM; ATP 10 µM

Compared with FC(F)(F)c1ccc(/C=C/c2nc(COc3ccc(CCCCn4ccnn4)cc3)co2)cc1, COc1cc2c(N3CCN(C(=O)Nc4ccc(OC(C)C)cc4)CC3)ncnc2cc1OCCCN1CCCCC1 is higher in residual activity: 100% for the first, 106% for the second.

COc1cc2c(Nc3ccc(Br)cc3F)ncnc2cc1OCC1CCN(C)CC1 and O=C(c1ccccc1)c1ccc(N2CCOCC2)cc1O are the same in residual activity: 102% for the first, 102% for the second.

System: SGK1 (human), O00141 [S422D]
Sequence (O00141 whole entry S422D, looked up): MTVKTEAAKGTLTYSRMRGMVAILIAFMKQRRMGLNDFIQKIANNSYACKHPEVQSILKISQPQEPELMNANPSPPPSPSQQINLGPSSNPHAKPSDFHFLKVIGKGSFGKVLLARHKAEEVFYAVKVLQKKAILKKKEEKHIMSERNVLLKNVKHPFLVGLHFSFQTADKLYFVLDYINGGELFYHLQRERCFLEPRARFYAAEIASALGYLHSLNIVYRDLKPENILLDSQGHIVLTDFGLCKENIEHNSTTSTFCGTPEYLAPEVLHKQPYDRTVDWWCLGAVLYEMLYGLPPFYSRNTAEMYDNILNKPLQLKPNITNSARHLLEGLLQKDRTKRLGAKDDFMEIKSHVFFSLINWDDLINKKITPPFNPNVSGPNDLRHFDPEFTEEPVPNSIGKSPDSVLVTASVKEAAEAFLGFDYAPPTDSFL
Experiment: as above
Settings: compound 0.5 µM; ATP 10 µM

Compared with FC(F)(F)c1ccc(/C=C/c2nc(COc3ccc(CCCCn4ccnn4)cc3)co2)cc1, COc1cc2c(N3CCN(C(=O)Nc4ccc(OC(C)C)cc4)CC3)ncnc2cc1OCCCN1CCCCC1 is higher in residual activity: 102% for the first, 123% for the second.

Compared with COc1cc2c(Nc3ccc(Br)cc3F)ncnc2cc1OCC1CCN(C)CC1, O=C(c1ccccc1)c1ccc(N2CCOCC2)cc1O is lower in residual activity: 115% for the first, 101% for the second.

Target: GRK6 (human) (UniProt P43250)
Sequence (P43250 whole entry, looked up): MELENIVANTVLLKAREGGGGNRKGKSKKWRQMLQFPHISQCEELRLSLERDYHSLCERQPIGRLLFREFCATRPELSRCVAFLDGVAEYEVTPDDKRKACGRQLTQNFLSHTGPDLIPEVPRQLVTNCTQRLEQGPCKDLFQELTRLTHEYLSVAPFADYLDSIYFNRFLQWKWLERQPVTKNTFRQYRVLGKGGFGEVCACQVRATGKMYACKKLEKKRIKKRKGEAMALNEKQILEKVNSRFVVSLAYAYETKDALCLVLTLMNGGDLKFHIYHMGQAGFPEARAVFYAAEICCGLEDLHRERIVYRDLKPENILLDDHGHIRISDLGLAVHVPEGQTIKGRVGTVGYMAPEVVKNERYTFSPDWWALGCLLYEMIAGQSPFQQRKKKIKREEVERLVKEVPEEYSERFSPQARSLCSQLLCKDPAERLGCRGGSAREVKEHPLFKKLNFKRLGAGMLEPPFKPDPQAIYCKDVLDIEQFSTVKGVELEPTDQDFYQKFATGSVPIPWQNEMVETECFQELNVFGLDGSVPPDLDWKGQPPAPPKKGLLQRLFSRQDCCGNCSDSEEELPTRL
Experiment: as above
Settings: compound 0.5 µM; ATP 10 µM

First: FC(F)(F)c1ccc(/C=C/c2nc(COc3ccc(CCCCn4ccnn4)cc3)co2)cc1
Second: COc1cc2c(N3CCN(C(=O)Nc4ccc(OC(C)C)cc4)CC3)ncnc2cc1OCCCN1CCCCC1
The residual activity of the first is lower: 104% for the first, 105% for the second.

First: COc1cc2c(Nc3ccc(Br)cc3F)ncnc2cc1OCC1CCN(C)CC1
Second: O=C(c1ccccc1)c1ccc(N2CCOCC2)cc1O
The residual activity of the first is higher: 104% for the first, 99.4% for the second.

Target: FGR (human) (UniProt P09769)
Experiment: as above
Settings: compound 0.5 µM; ATP 10 µM

First: FC(F)(F)c1ccc(/C=C/c2nc(COc3ccc(CCCCn4ccnn4)cc3)co2)cc1
Second: COc1cc2c(N3CCN(C(=O)Nc4ccc(OC(C)C)cc4)CC3)ncnc2cc1OCCCN1CCCCC1
The residual activity of the first is lower: 92.6% for the first, 94% for the second.

Compared with COc1cc2c(Nc3ccc(Br)cc3F)ncnc2cc1OCC1CCN(C)CC1, O=C(c1ccccc1)c1ccc(N2CCOCC2)cc1O is higher in residual activity: 30% for the first, 104% for the second.

Target: TAOK1 (human) (UniProt Q7L7X3)
Experiment: as above
Settings: compound 0.5 µM; ATP 10 µM

Compared with FC(F)(F)c1ccc(/C=C/c2nc(COc3ccc(CCCCn4ccnn4)cc3)co2)cc1, COc1cc2c(N3CCN(C(=O)Nc4ccc(OC(C)C)cc4)CC3)ncnc2cc1OCCCN1CCCCC1 is higher in residual activity: 102% for the first, 103% for the second.

Going from COc1cc2c(Nc3ccc(Br)cc3F)ncnc2cc1OCC1CCN(C)CC1 to O=C(c1ccccc1)c1ccc(N2CCOCC2)cc1O, the residual activity falls from 103% to 100%.

Target: SGK3 (human) (UniProt Q96BR1)
Sequence (Q96BR1 whole entry, looked up): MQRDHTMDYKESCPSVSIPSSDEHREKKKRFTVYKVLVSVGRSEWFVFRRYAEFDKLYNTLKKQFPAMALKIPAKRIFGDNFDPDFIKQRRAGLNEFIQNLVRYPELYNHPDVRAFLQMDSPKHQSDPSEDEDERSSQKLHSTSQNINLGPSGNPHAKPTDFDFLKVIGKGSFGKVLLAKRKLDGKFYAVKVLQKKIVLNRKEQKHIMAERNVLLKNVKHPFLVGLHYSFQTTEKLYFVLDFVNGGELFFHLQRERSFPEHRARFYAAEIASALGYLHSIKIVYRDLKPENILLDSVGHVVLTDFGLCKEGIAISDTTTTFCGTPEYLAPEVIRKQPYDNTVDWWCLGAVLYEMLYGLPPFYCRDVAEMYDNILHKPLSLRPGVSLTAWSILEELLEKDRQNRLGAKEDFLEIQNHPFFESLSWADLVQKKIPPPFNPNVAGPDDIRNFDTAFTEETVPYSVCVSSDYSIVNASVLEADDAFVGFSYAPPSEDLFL
Experiment: as above
Settings: compound 0.5 µM; ATP 10 µM

First: FC(F)(F)c1ccc(/C=C/c2nc(COc3ccc(CCCCn4ccnn4)cc3)co2)cc1
Second: COc1cc2c(N3CCN(C(=O)Nc4ccc(OC(C)C)cc4)CC3)ncnc2cc1OCCCN1CCCCC1
The residual activity of the first is lower: 89.2% for the first, 102% for the second.

Compared with COc1cc2c(Nc3ccc(Br)cc3F)ncnc2cc1OCC1CCN(C)CC1, O=C(c1ccccc1)c1ccc(N2CCOCC2)cc1O is higher in residual activity: 97.9% for the first, 105% for the second.

Target: CDK7 CCNH MNAT1 (human) (UniProt P50613+P51948+P51946)
Experiment: as above
Settings: compound 0.5 µM; ATP 10 µM

First: FC(F)(F)c1ccc(/C=C/c2nc(COc3ccc(CCCCn4ccnn4)cc3)co2)cc1
Second: COc1cc2c(N3CCN(C(=O)Nc4ccc(OC(C)C)cc4)CC3)ncnc2cc1OCCCN1CCCCC1
The residual activity of the first is lower: 107% for the first, 109% for the second.

Going from COc1cc2c(Nc3ccc(Br)cc3F)ncnc2cc1OCC1CCN(C)CC1 to O=C(c1ccccc1)c1ccc(N2CCOCC2)cc1O, the residual activity rises from 102% to 106%.

Target: DYRK1A (human) (UniProt Q13627)
Experiment: as above
Settings: compound 0.5 µM; ATP 10 µM

Going from FC(F)(F)c1ccc(/C=C/c2nc(COc3ccc(CCCCn4ccnn4)cc3)co2)cc1 to COc1cc2c(N3CCN(C(=O)Nc4ccc(OC(C)C)cc4)CC3)ncnc2cc1OCCCN1CCCCC1, the residual activity falls from 105% to 104%.

First: COc1cc2c(Nc3ccc(Br)cc3F)ncnc2cc1OCC1CCN(C)CC1
Second: O=C(c1ccccc1)c1ccc(N2CCOCC2)cc1O
The residual activity of the first is higher: 106% for the first, 101% for the second.
